From patent US20240383908A1, “SYNTHESIS AND APPLICATION OF PHOSPHATASE DEGRADER” (HINOVA PHARMACEUTICALS INC., priority 2021, published 2024)
Counter-ions that a name gives are not always drawn.

What was measured:
Format in all cases: cell-based
SHP2 protein [1] = target: T1, SHP2 protein (Homo sapiens, UniProt Q06124); test: Degradation activity on SHP2 protein in NCI-H358 cells (Western blot, DC50); parameters: endogenous in cells; conditions: read-out: Degradation activity for differenct cell lines NCI-H358 (DC50)
T1 sequence (Q06124 1-593): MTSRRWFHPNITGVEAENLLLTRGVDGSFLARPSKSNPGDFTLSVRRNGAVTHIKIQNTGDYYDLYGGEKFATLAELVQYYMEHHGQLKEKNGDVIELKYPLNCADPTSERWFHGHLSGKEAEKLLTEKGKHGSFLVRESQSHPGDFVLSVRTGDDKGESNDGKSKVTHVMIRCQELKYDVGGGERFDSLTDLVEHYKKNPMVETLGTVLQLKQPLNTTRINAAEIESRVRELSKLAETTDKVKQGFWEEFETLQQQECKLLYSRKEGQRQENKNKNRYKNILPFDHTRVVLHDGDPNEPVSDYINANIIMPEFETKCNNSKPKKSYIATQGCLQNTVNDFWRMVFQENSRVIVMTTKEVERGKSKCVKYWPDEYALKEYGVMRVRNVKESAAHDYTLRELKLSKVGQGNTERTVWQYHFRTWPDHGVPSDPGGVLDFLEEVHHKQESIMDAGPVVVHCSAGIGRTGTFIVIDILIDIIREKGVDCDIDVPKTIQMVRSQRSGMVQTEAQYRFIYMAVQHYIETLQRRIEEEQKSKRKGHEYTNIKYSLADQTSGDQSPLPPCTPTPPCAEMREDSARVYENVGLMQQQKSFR
Experimental: (1) MV-411 cells were cultured in the cell culture medium, and then well-growing cells were selected and inoculated in a 12-well plate, with 1 mL/well and 1×10^6 cells/well. The plate was incubated overnight in a 5% CO2 cell incubator at 37° C.
(2) 10 mM storage solution of each drug was prepared using dimethylsulfoxide (DMSO). The stock solution was diluted gradually with DMSO before use, and then 1 μL of the compound solution was added to the cell culture well (to ensure that the DMSO concentration in the culture system was […]), so that the final drug concentration is 100 nM, 10 nM, 3 nM, 1 nM, 0.3 nM, and 0.1 nM. Two wells were set for each concentration. The plate was gently shaken and mixed. Additionally, negative control wells (containing an equal amount of DMSO) and positive control wells were included.
(3) After 24 hours of cultivation, the cells were lysed using RIPA cell lysate, and the proteins were extracted. The protein concentration was measured using a BCA assay kit. 5× concentrated protein buffer was loaded, heated at 100° C. for 5 min, and then the sample was stored at −20° C.
(4) For each well, 30 μg of protein was loaded to polyacrylamide gel for electrophoresis.
(5) The protein was transferred from polyacrylamide gel to PVDF membrane, and sealed at room temperature with 5% skimmed milk for 1 h, which was then incubated with the primary antibodies (Anti-SHP2 rabbit mAb and Anti-GAPDH rabbit mAb) at 4° C. overnight. The membrane was washed three times with TBST solution, 10 minutes for each time. After that, the membrane was incubated with the secondary antibodies (horseradish peroxidase labeled goat anti-rabbit IgG) at room temperature for 2 h, and then washed three times with TBST solution, 10 minutes for each time, followed by exposure.
(6) The images were analyzed with Image J grayscale, and the degradation ratio of protein bands in the test group was calculated, based on the negative control group (DMSO) (100%).
(7) Using the Dose-response-inhibition equation in the data processing software GraphPad Prism 8, the DC50 value was obtained (which represents the drug concentration corresponding to 50% degradation of the target protein).
Using similar methods and different cell lines, the degradation activity of the compound according to the present invention on SHP2 protein of different cell lines was tested under suitable culture conditions.

SHP2 protein [2] = target: T1, SHP2 protein; test: Degradation activity on SHP2 protein in MIA Paca-2 cells (Western blot, DC50); parameters: endogenous in cells; host or cells: MIA Paca-2 cells; conditions: read-out: Degradation activity for differenct cell lines MIA Paca-2 (DC50)
Method in brief: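 Cells were treated 24 h at 37 °C with compound (0.1–100 nM final, 0.1% DMSO). SHP2 was measured by Western blot with GAPDH as loading control, densitometry normalized to DMSO (100%). DC50, the concentration giving 50% degradation, came from a dose-response fit.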

SHP2 protein [3] = target: T1, SHP2 protein; test: Degradation activity on SHP2 protein in MV-411 cells (Western blot, DC50); parameters: endogenous in cells; conditions: MV411 cells, 24 hours, read-out: Degradation activity for differenct cell lines MV411 (DC50)
Method in brief: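 MV-411 cells (1×10^6 cells/well, IMDM + 10% FBS) were treated 24 h with compound at 0.1-100 nM final, 0.1% DMSO, duplicates. SHP2 measured by Western blot against GAPDH, band density normalised to DMSO control; DC50 from dose-response fit.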

CC1(N)CCN(c2cnc(Sc3cccc(NC(=O)CCCCCCCOC4CCN(c5ncc(C(=O)NCc6ccc7c(c6)CN(C6CCC(=O)NC6=O)C7=O)cn5)CC4)c3)cn2)CC1 (stereo not drawn) [Compound 79]
DC50 (SHP2 protein [1]): < 100 nM | DC50 (SHP2 protein [2]): 100 to 1000 nM | DC50 (SHP2 protein [3]): < 100 nM

Cc1ncsc1-c1ccc([C@H](C)NC(=O)[C@@H]2C[C@@H](O)CN2C(=O)[C@@H](NC(=O)CCCCCN2CCC3(C2)CN(CCC(=O)Nc2cccc(Sc4cnc(N5CCC(C)(N)CC5)cn4)c2)C3)C(C)(C)C)cc1 [Compound 46]
DC50 (SHP2 protein [1]): > 1000 nM | DC50 (SHP2 protein [3]): < 100 nM

Cc1ncsc1-c1ccc([C@H](C)NC(=O)[C@@H]2C[C@@H](O)CN2C(=O)[C@@H](NC(=O)c2cnc(N3CCN(CCCCCCC(=O)Nc4cccc(Sc5cnc(N6CCC(C)(N)CC6)cn5)c4)CC3)nc2)C(C)(C)C)cc1 [Compound 241]
DC50 (SHP2 protein [1]): < 100 nM | DC50 (SHP2 protein [2]): < 100 nM

CC1(N)C2CCC1CN(c1cnc(Sc3cccc(NC(=O)CCCCCCCCN4CCC(c5ccc(C(=O)NCc6ccc7c(c6)CN(C6CCC(=O)NC6=O)C7=O)nn5)CC4)c3)cn1)C2 (stereo not drawn) [Compound 224]
DC50 (SHP2 protein [1]): < 100 nM | DC50 (SHP2 protein [2]): < 100 nM

CC1(N)CCN(c2cnc(Sc3cccc(NC(=O)c4ccc5c(c4)CC(N4CCN(c6ccc(C(=O)NCc7ccc8c(c7)CN(C7CCC(=O)NC7=O)C8=O)nn6)CC4)C5)c3)cn2)CC1 (stereo not drawn) [Compound 344, […]]
DC50 (SHP2 protein [1]): > 1000 nM | DC50 (SHP2 protein [2]): < 100 nM

CC1(N)CCN(c2cnc(Sc3cccc(NC(=O)c4ccc(N5CCC(N6CC=C(c7cnc(C(=O)NCc8ccc9c(c8)CN(C8CCC(=O)NC8=O)C9=O)cc7Cl)CC6)CC5)cc4)c3)cn2)CC1 (stereo not drawn) [Compound 399]
DC50 (SHP2 protein [1]): < 100 nM | DC50 (SHP2 protein [2]): < 100 nM

C[C@@H]1CN(c2ccc(C(=O)NCc3ccc4c(c3)CN(C3CCC(=O)NC3=O)C4=O)nn2)CCN1CCCCCCCCC(=O)Nc1cccc(Sc2cnc(N3CCC(C)(N)CC3)cn2)c1 (stereo partly drawn) [Compound 252]
DC50 (SHP2 protein [1]): < 100 nM | DC50 (SHP2 protein [2]): < 100 nM

Cc1ncsc1-c1ccc([C@H](C)NC(=O)[C@@H]2C[C@@H](O)CN2C(=O)[C@@H](NC(=O)c2cnc(N3CCN(CCCCC(=O)Nc4cccc(Sc5cnc(N6CCC(C)(N)CC6)cn5)c4)CC3)nc2)C(C)(C)C)cc1 [Compound 221]
DC50 (SHP2 protein [1]): < 100 nM | DC50 (SHP2 protein [2]): < 100 nM

CC1(N)CCN(c2cnc(Sc3cccc(NC(=O)CCCCCCCCN4CCN(c5ccc(C(=O)NCc6ccc7c(c6)CN(C6CCC(=O)NC6=O)C7=O)nc5Cl)CC4C(F)(F)F)c3)cn2)CC1 (stereo not drawn) [Compound 227]
DC50 (SHP2 protein [1]): < 100 nM | DC50 (SHP2 protein [2]): < 100 nM

CC1CN(CCCCCCCCC(=O)Nc2cccc(Sc3cnc(N4CCC(C)(N)CC4)cn3)c2)CC=C1c1ccc(C(=O)NC(C)c2ccc3c(c2)CN(C2CCC(=O)NC2=O)C3=O)nc1 (stereo not drawn) [Compound 242]
DC50 (SHP2 protein [1]): < 100 nM | DC50 (SHP2 protein [2]): < 100 nM

CC(CCCCCCCC(=O)Nc1cccc(Sc2cnc(N3CCC(C)(N)CC3)cn2)c1)N1CC=C(c2ccc(C(=O)NCc3ccc4c(c3)CN(C3CCC(=O)NC3=O)C4=O)nc2)C(C)(C)C1 (stereo not drawn) [Compound 245]
DC50 (SHP2 protein [1]): < 100 nM | DC50 (SHP2 protein [2]): < 100 nM

CC1(N)CCN(c2cnc(Sc3cccc(NC(=O)c4ccc(-c5ccc(N6CCN(c7ccc(C(=O)NCc8ccc9c(c8)CN(C8CCC(=O)NC8=O)C9=O)nc7)CC6)cc5)cc4)c3)cn2)CC1 (stereo not drawn) [Compound 343, 5-(4-(4′-((3-(([…])thio)phenyl)carbamoyl)-[1,1′-diphenyl]-4-yl)piperazin-1-yl)-N-((2-(2,6-dioxopiperidin-3-yl)-1-oxoisoindolin-5-yl)methyl)pyridinecarboxamide]
DC50 (SHP2 protein [1]): > 1000 nM | DC50 (SHP2 protein [2]): < 100 nM

CC1(N)CCN(c2cnc(Sc3cccc(NC(=O)c4ccc(N5CCC(N6CC=C(c7ccc(C(=O)NCc8ccc9c(c8)CN(C8CCC(=O)NC8=O)C9=O)nc7Cl)CC6)CC5)cc4)c3)cn2)CC1 (stereo not drawn) [Compound 398]
DC50 (SHP2 protein [1]): < 100 nM | DC50 (SHP2 protein [2]): < 100 nM

CC1(N)CCN(c2cnc(Sc3cccc(NC(=O)c4ccc(N5CCC(N6CC=C(c7ccc(C(=O)NCc8ccc9c(c8)CN(C8CCC(=O)NC8=O)C9=O)nc7)CC6)CC5)cc4F)c3)cn2)CC1 (stereo not drawn) [Compound 405]
DC50 (SHP2 protein [1]): < 100 nM | DC50 (SHP2 protein [2]): 100 to 1000 nM

CC1(N)CCN(c2cnc(Sc3cccc(NC(=O)c4ccc(N5CCC(N6CC=C(c7ccc(C(=O)NCc8ccc9c(c8)CN(C8CCC(=O)NC8=O)C9=O)cc7)CC6)CC5)c(F)c4)c3)cn2)CC1 (stereo not drawn) [Compound 445]
DC50 (SHP2 protein [1]): < 100 nM | DC50 (SHP2 protein [2]): 100 to 1000 nM

CC1(N)CCN(c2cnc(Sc3cccc(NC(=O)c4ccc(N5CCC(N6CCN(c7ccc(C(=O)NCc8ccc9c(c8)CN(C8CCC(=O)NC8=O)C9=O)nc7)CC6)CC5)c(F)c4)c3)cn2)CC1 (stereo not drawn) [Compound 396]
DC50 (SHP2 protein [1]): < 100 nM | DC50 (SHP2 protein [2]): < 100 nM

C[C@H]1CN(c2ccc(C(=O)NCc3ccc4c(c3)CN(C3CCC(=O)NC3=O)C4=O)nn2)CCN1CCCCCCCCC(=O)Nc1cccc(Sc2cnc(N3CCC(C)(N)CC3)cn2)c1 (stereo partly drawn) [Compound 249]
DC50 (SHP2 protein [1]): < 100 nM | DC50 (SHP2 protein [2]): < 100 nM

CC1(N)CCN(c2cnc(Sc3cccc(NC(=O)CCN4CCN(c5ccc(C(=O)NCc6ccc7c(c6)CN(C6CCC(=O)NC6=O)C7=O)nn5)CC4)c3)cn2)CC1 (stereo not drawn) [Compound 248]
DC50 (SHP2 protein [1]): < 100 nM | DC50 (SHP2 protein [2]): < 100 nM

CC1(N)CCN(c2cnc(Sc3cccc(NC(=O)CCCCCCCCN4C[C@@H]5C[C@H]4CN5c4ccc(C(=O)NCc5ccc6c(c5)CN(C5CCC(=O)NC5=O)C6=O)nn4)c3)cn2)CC1 (stereo partly drawn) [Compound 237]
DC50 (SHP2 protein [1]): < 100 nM | DC50 (SHP2 protein [2]): < 100 nM

CC1(N)CCN(c2cnc(Sc3cccc(NC(=O)CCCCCCCCN4CCN(c5ccc(C(=O)NCc6ccc7c(c6)CN(C6CCC(=O)NC6=O)C7=O)cc5)CC4)c3)cn2)CC1 (stereo not drawn) [Compound 229]
DC50 (SHP2 protein [1]): < 100 nM | DC50 (SHP2 protein [2]): < 100 nM

C[C@@H]1CN(CCCCCCCCC(=O)Nc2cccc(Sc3cnc(N4CCC(C)(N)CC4)cn3)c2)CCN1c1ccc(C(=O)NCc2ccc3c(c2)CN(C2CCC(=O)NC2=O)C3=O)nn1 (stereo partly drawn) [Compound 239]
DC50 (SHP2 protein [1]): < 100 nM | DC50 (SHP2 protein [2]): < 100 nM

CC1(N)CCN(c2cnc(Sc3cccc(NC(=O)c4ccc(N5CCC(N6CC=C(c7cnc(C(=O)NCc8ccc9c(c8)CN(C8CCC(=O)NC8=O)C9=O)c(Cl)c7)CC6)CC5)cc4)c3)cn2)CC1 (stereo not drawn) [Compound 400]
DC50 (SHP2 protein [1]): < 100 nM | DC50 (SHP2 protein [2]): < 100 nM

Cc1ncsc1-c1ccc([C@H](C)NC(=O)[C@@H]2C[C@@H](O)CN2C(=O)[C@@H](NC(=O)c2cnc(N3CCN(CCCCCC(=O)Nc4cccc(Sc5cnc(N6CCC(C)(N)CC6)cn5)c4)CC3)nc2)C(C)(C)C)cc1 [Compound 220]
DC50 (SHP2 protein [1]): < 100 nM | DC50 (SHP2 protein [2]): < 100 nM

CC1(N)CCN(c2cnc(Sc3cccc(NC(=O)CCCCCCCCN4CCN(c5ccc(C(=O)NCc6ccc7c(c6)CN(C6CCC(=O)NC6=O)C7=O)nn5)C[C@@H]4CO)c3)cn2)CC1 (stereo partly drawn) [Compound 251]
DC50 (SHP2 protein [1]): < 100 nM | DC50 (SHP2 protein [2]): < 100 nM

Cc1ncsc1-c1ccc([C@H](C)NC(=O)[C@@H]2C[C@@H](O)CN2C(=O)[C@@H](NC(=O)c2cnc(N3CCN(CC(=O)Nc4cccc(Sc5cnc(N6CCC(C)(N)CC6)cn5)c4)CC3)nc2)C(C)(C)C)cc1 [Compound 231]
DC50 (SHP2 protein [1]): > 1000 nM | DC50 (SHP2 protein [2]): > 1000 nM
